The supplement of paper PMC10307832

How the values were obtained:
Test in all cases: relative viability (nuclei count vs DMSO), 5 days (fraction); higher = more cells survive
[1] = compound: CCOC(=O)CCNc1cc(N2CCc3ccccc3CC2)nc(-c2ccccn2)n1 [GSK-J4] + CS(=O)(=O)CCNCc1ccc(-c2ccc3ncnc(Nc4ccc(OCc5cccc(F)c5)c(Cl)c4)c3c2)o1 [Lapatinib] (partner 2 µM)
In short: (§1)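 Lung cancer cell lines were pin-tool dosed in 1536-well plates on the day after seeding, with either a lone drug or a fixed anchor-drug dose plus five library-drug doses (not always all listed) in √10 steps. Nuclei were counted on 4× images after 5 days. Relative viability is the ratio of treated-well to vehicle-well nuclei counts, with each value a median of duplicate plates.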

[2] = compound: CCOC(=O)CCNc1cc(N2CCc3ccccc3CC2)nc(-c2ccccn2)n1 [GSK-J4] + Cc1nc(Nc2ncc(C(=O)Nc3c(C)cccc3Cl)s2)cc(N2CCN(CCO)CC2)n1 [Dasatinib] (partner 0.075 µM)
In short: as §1

[3] = compound: CN1CCC(CC1)OC2=CC(=C(C=C2)NC3=NC=C4C(=N3)N(C(=O)N4C)C5CCCC5)OC [AZ3146] + C[C@@H](Oc1cc(-c2cnn(C3CCNCC3)c2)cnc1N)c1c(Cl)ccc(F)c1Cl [Crizotinib] (partner 1 µM)
In short: as §1

[4] = compound: CN1CCC(CC1)OC2=CC(=C(C=C2)NC3=NC=C4C(=N3)N(C(=O)N4C)C5CCCC5)OC [AZ3146] + O=C(c1cc(Cc2n[nH]c(=O)c3ccccc23)ccc1F)N1CCN(C(=O)C2CC2)CC1 [Olaparib] (partner 8 µM)
In short: as §1

| Cell Line | relative viability ([1]; first compound 0.5 µM) | relative viability ([1]; first compound 5 µM) | relative viability ([1]; first compound 15.81 µM) | relative viability ([1]; first compound 50 µM) | relative viability ([2]; first compound 0.5 µM) | relative viability ([2]; first compound 1.581 µM) | relative viability ([2]; first compound 5 µM) | relative viability ([2]; first compound 15.81 µM) | relative viability ([2]; first compound 50 µM) | relative viability ([3]; first compound 0.08 µM) | relative viability ([3]; first compound 0.253 µM) | relative viability ([3]; first compound 0.8 µM) | relative viability ([3]; first compound 2.53 µM) | relative viability ([3]; first compound 8 µM) | relative viability ([4]; first compound 0.08 µM) | relative viability ([4]; first compound 0.253 µM) | relative viability ([4]; first compound 0.8 µM) | relative viability ([4]; first compound 2.53 µM) | relative viability ([4]; first compound 8 µM) | relative viability ([1]; first compound 1.581 µM) |
| --- | --- | --- | --- | --- | --- | --- | --- | --- | --- | --- | --- | --- | --- | --- | --- | --- | --- | --- | --- | --- |
| NCI-H1666 | 0.576 | 0.7 | 0.567 | 0.382 | 0.774 | 0.879 | 0.526 | 0.802 | 0.536 | 1.08 | 1.01 | 1.08 | 0.934 | 0.778 | 0.719 | 0.79 | 0.741 | 0.75 | 0.741 |  |
| NCI-H1734 | 0.977 | 0.74 | 0.893 | 0.725 | 0.405 | 0.454 | 0.378 | 0.396 | 0.468 | 0.678 | 0.752 | 0.655 | 0.697 | 0.598 | 0.58 | 0.61 | 0.632 | 0.607 | 0.612 | 0.802 |
| NCI-H1755 | 0.96 | 0.673 | 0.923 | 0.917 | 0.367 | 0.406 | 0.246 | 0.364 | 0.361 | 0.868 | 0.888 | 0.855 | 0.928 | 0.816 | 0.867 | 0.892 | 0.89 | 0.945 | 0.923 | 0.905 |
| NCI-H1792 | 0.932 | 0.835 | 0.782 | 0.692 | 0.805 |  | 0.817 | 0.529 | 0.809 | 0.834 | 1.07 | 1.01 | 0.797 | 1 | 0.351 | 0.522 | 0.384 | 0.42 | 0.434 | 0.705 |
| NCI-H1915 | 0.963 | 0.83 | 0.941 | 0.961 | 0.342 | 0.36 |  | 0.316 | 0.352 | 0.878 | 0.905 | 0.852 | 0.896 | 0.82 | 0.24 | 0.283 | 0.271 | 0.277 | 0.312 | 0.802 |
| NCI-H1944 | 0.8 | 0.78 | 0.665 | 0.787 | 0.225 | 0.223 | 0.179 | 0.196 | 0.184 |  | 0.977 | 1.09 | 1.13 | 1.1 | 0.36 | 0.391 | 0.408 | 0.475 | 0.473 | 0.795 |
| NCI-H1975 | 0.873 |  | 0.929 | 1.19 | 0.335 | 0.361 | 0.253 | 0.267 | 0.284 | 0.862 | 1.07 | 0.834 | 0.406 | 0.299 | 0.748 | 0.774 | 0.813 | 0.793 | 0.418 | 0.971 |
| NCI-H1993 | 0.837 | 0.927 | 0.808 | 0.671 | 0.613 | 0.649 | 0.716 | 0.52 | 0.43 | 0.876 | 0.847 | 0.813 | 0.879 | 0.84 | 1 | 1.12 | 1.12 | 1.04 | 1.06 | 0.878 |
| NCI-H2009 | 0.828 | 0.56 | 0.971 | 0.739 | 0.298 | 0.276 | 0.166 | 0.265 | 0.189 | 0.978 | 1.12 | 1.04 | 0.87 | 0.885 | 0.642 | 0.662 | 0.742 | 0.649 | 0.604 | 0.144 |
| NCI-H2023 | 0.827 | 0.727 | 0.641 | 0.474 | 0.49 |  | 0.529 | 0.48 | 0.428 | 0.592 | 0.636 | 0.485 | 0.407 | 0.449 | 0.464 | 0.451 | 0.494 | 0.436 | 0.152 | 0.0641 |
| NCI-H2085 | 0.696 | 0.77 | 0.615 | 0.397 | 0.288 | 0.273 | 0.388 | 0.223 | 0.377 | 0.837 | 0.998 | 0.933 | 0.824 | 0.658 | 0.792 | 0.749 | 0.749 | 0.764 | 0.711 | 0.679 |
| NCI-H2087 | 0.794 |  | 1.01 | 0.57 | 0.747 |  | 0.725 | 0.694 | 0.645 | 0.906 | 0.875 | 0.843 | 0.795 | 0.376 | 0.563 | 0.654 | 0.649 | 0.637 | 0.419 | 0.514 |
| NCI-H2126 | 0.817 | 0.854 | 0.69 | 0.59 | 0.603 | 0.47 | 0.587 | 0.56 | 0.444 | 1.05 | 0.992 | 1.06 | 1.07 | 0.989 | 0.908 | 0.898 | 0.897 | 0.967 | 0.862 | 0.657 |
| NCI-H2170 | 0.311 | 0.265 | 0.261 | 0.22 | 0.542 | 0.744 | 0.643 | 0.475 | 0.536 | 1.04 | 1.07 | 1.22 | 1.11 | 1.03 | 0.578 | 0.63 | 0.542 | 0.614 | 0.623 | 0.247 |
| NCI-H2228 | 1.11 | 1.17 | 0.943 | 0.938 | 0.534 | 0.436 | 0.683 | 0.398 | 0.525 | 0.537 | 0.503 | 0.423 | 0.396 | 0.369 | 0.873 | 0.632 | 0.672 | 0.503 | 0.544 | 0.598 |
| NCI-H2347 | 0.841 | 0.753 | 0.963 | 0.664 | 0.316 | 0.286 | 0.572 |  | 0.261 | 0.522 | 0.677 | 0.822 | 0.647 | 0.699 | 0.587 | 0.354 | 0.562 | 0.49 | 0.612 | 0.573 |
